Results published in patent publication US6586216B2 (Purdue Research Foundation, priority 1997, dated 2003).
Several values for one entry are separate records, joined by “and”; a condition that tells them apart may be missing. Equal entries are not always repeated. Where two headings read alike, the source gives them in different places.

Legend:
[1] = target: T1, Bacillus subtilis glutamine PRPP amidotransferase, wild type (Bacillus subtilis, UniProt P00497); assay: Nucleotide binding by equilibrium dialysis, wild type enzyme; conditions: for Capacity: at saturation
T1 construct: Enzymes of the B. subtilis class are synthesized with an NH2 terminal propeptide; made in house; host or cells: E. coli strain TX158 (purF), plasmid pGZ1
Experimental: Plasmid pGZ1 was used for production of the wild type enzyme. […] For construction of mutants, the EcoRI-HindIII purF^+ DNA was transferred to pUC118 to yield pBsF. […] The resulting plasmids were named pBsF/S283A, pBsF/K305Q, pBsF/R307Q, and pBsF/S347A.
For enzyme purification, all buffers were sparged with nitrogen gas prior to use in order to minimize oxidation of the enzyme's Fe-S cluster. All steps were carried out at 4° C. Cells were resuspended in 4 mL/gram of buffer A [50 mM Tris-HCl (pH 8.0), 10 mM MgCl2, 0.1 mM EDTA, 5 mM DTT, and 2 mM AMP] containing 1 mM PMSF, and were disrupted by two passes through a French Press. The cell extract was obtained by centrifugation for 1 h at 27,000 g. Protamine sulfate (5 mg per gram of cells) was added to the extract to precipitate DNA. […] After centrifugation, enzyme in the brown pellet was recovered by extraction twice with 30% saturated ammonium sulfate. A small colorless pellet that remained was discarded, and the dark brown enzyme solution in buffer A containing residual ammonium sulfate was stored as beads in liquid nitrogen. […] For assays of activity, the enzyme was diluted 1:1000 in […] Tris-HCl (pH 8.0) containing 1 mg/mL bovine serum albumin. For measurements of ligand binding by equilibrium dialysis and for crystallization experiments, the enzyme was dialyzed anaerobically against buffer B [50 mM Tris-HCl (pH 8.0), 0.1 mM EDTA, and 5 mM DTT] prior to being used.
Nucleotide binding was determined by equilibrium dialysis using chambers of 150 μL that were separated by a 12000-14000 molecular weight dialysis membrane. […] In some experiments, the chambers with radioactive nucleotide also contained a fixed concentration of a second non-radioactive nucleotide. The other chamber contained 50 mM Tris-HCl (pH 7.5) and 50-200 μM enzyme, calculated as the subunit concentration, in a volume of 100 μL. Dialysis was carried out for 20 h at room temperature (˜22° C.) in a rotating apparatus. Samples of 80 μL were retrieved from each chamber and were counted for radioactivity. All experiments were performed in an anaerobic glovebox. […] Equilibrium binding data were fit to the Hill equation (Y=C [free ligand]^n/[…]+[free ligand]^n, where Y is the fractional saturation, C is the binding capacity, Kd is the dissociation constant, and n is the Hill coefficient) by nonlinear regression using Ultrafit software (Biosoft, Cambridge, UK).

[2] = target: T2, wild type B. subtilis glutamine PRPP amidotransferase (Bacillus subtilis, UniProt P00497); assay: Inhibition of enzyme activity by nucleotides (glutamate formation assay), wild type; assay type: biochemical; conditions: wild type; for Hill coefficient determined from inhibition data: PRPP present
T2 construct: Enzymes of the B. subtilis class are synthesized with an NH2 terminal propeptide and an Fe—S center; made in house; host or cells: E. coli strain TX158 (purF) with plasmid pGZ1
T2 sequence (P00497 12-476): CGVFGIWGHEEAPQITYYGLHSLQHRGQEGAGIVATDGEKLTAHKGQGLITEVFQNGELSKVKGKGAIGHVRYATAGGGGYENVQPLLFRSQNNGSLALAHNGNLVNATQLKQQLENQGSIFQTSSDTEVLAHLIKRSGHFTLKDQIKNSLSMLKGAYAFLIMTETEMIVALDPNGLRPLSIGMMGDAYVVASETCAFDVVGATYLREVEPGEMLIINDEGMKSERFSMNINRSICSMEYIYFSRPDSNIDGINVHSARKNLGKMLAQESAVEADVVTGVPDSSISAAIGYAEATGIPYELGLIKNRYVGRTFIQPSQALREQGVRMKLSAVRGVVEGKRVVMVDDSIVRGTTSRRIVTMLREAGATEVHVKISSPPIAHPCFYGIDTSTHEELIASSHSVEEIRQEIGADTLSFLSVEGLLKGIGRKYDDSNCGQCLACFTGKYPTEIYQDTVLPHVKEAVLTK
Experimental: Enzyme activity was assayed by measuring the initial rate of formation of the product glutamate. […] Incubation was at 37° C. for 6 min. […] Reactions were quenched in a boiling water bath for 2 min, and glutamate was determined by the glutamate dehydrogenase method.
(§1) Inhibition by nucleotides was determined by the standard assay to which varied concentrations of nucleotide were added. Synergistic inhibition was determined by varying the concentration of one nucleotide in the presence of a fixed concentration of a second nucleotide. Relative activity (see FIG. 1) refers to the enzyme activity at a given concentration of the varied nucleotide relative to that in the absence of the varied nucleotide. I0.5 values were calculated from plots of relative activity versus varied nucleotide concentration.

[3] = target: T3, Bacillus subtilis glutamine PRPP amidotransferase variant R307Q (Bacillus subtilis, UniProt P00497, R318Q); assay: Inhibition of enzyme activity (glutamate formation) by nucleotides, mutant R307Q; assay type: biochemical
T3 construct: Enzymes of the B. subtilis class are synthesized with an NH2 terminal propeptide; made in house; host or cells: E. coli strain TX158 (purF), plasmid pBsF/R307Q
Description: Plasmid pGZ1 was used for production of the wild type enzyme. Plasmid pGZ1 contains a 1.6 kb EcoRI-HindIII purF^+ fragment (Makaroff, C. A., Zalkin, H., Switzer, R. L., and Vollmer, S. J. (1983) J. Biol. Chem. 258, pp. 10586-10593) inserted into the corresponding sites of pUC18. For construction of mutants, the EcoRI-HindIII purF^+ DNA was transferred to pUC118 to yield pBsF. Mutations were constructed by the method of Kunkel et al. (Kunkel, T. A., Roberts, J. D., and Zakour, R. A. (1987) Methods Enzymol. 154, pp. 367-382) using pBsF phagemid DNA. The resulting plasmids were named pBsF/S283A, pBsF/K305Q, pBsF/R307Q, and pBsF/S347A.
Enzyme activity was assayed by measuring the initial rate of formation of the product glutamate. […] Incubation was at 37° C. for 6 min. The reaction was linear with time for at least 20 min under these conditions of assay. Reactions were quenched in a boiling water bath for 2 min, and glutamate was determined by the glutamate dehydrogenase method. The control reaction mixture contained all the components except PRPP.
as §1
Site directed mutagenesis was utilized to modify amino acids comprising the A site and C site domains of the glutamine PRPP amidotransferase. These modified forms of amidotransferase were analyzed to determine the impact of the mutations on end-product inhibition and enzymatic activity. Inhibition by nucleotides was determined as described in Example 1.

[4] = no fixed nucleotide, pH 7.5, ~22° C., half-saturation of the two sites, read-out: Kd (apparent)
[5] = I0.5, no fixed nucleotide, 2.5 mM PRPP, pH 8.0, 37° C.

T3 sequence (P00497 12-476 R318Q): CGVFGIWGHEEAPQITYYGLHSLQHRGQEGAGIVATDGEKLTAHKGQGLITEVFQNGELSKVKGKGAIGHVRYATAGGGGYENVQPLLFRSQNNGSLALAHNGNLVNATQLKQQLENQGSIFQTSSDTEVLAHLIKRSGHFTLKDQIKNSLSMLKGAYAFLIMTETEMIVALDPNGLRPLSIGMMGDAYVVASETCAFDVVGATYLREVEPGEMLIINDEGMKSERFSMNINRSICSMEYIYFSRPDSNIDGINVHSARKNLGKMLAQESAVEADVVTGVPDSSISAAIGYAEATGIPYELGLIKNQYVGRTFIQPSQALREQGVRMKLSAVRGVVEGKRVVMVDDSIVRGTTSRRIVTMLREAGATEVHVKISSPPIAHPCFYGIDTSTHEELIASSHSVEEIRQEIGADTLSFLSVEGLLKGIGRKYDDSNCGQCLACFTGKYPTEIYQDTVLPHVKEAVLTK

SMILES: Nc1ncnc2c1ncn2[C@@H]1O[C@H](COP(=O)(O)O)[C@@H](O)[C@H]1O [AMP]
- Capacity ([1]; fixed ADP 0.25 mM): 0.94 ± 0.16 Equivalents bound per subunit
- Kd ([1]; fixed ADP 0.25 mM, read-out: Kd): 77 µM
- Capacity ([1]; fixed ADP 0.5 mM): approximately 0.4 Equivalents bound per subunit
- Capacity ([1]; fixed GMP 1.0 mM): 1.05 ± 0.21 Equivalents bound per subunit
- Kd ([1]; fixed GMP 1.0 mM, read-out: Kd): 103 µM
- increase of binding affinity by GMP or ADP ([1]; fixed GMP or ADP): 2-3 fold
- Hill coefficient ([1]; no fixed nucleotide): 3.4
- Capacity ([1]; no fixed nucleotide): 1.57 Equivalents bound per subunit and 1.57 ± 0.27 Equivalents bound per subunit
- Kd [1, 4]: 240 µM and 239 µM
- Hill coefficient determined from inhibition data [2]: 3.3-3.8
- syn. ([2]; fixed ADP 0.5 mM): 1.4
- syn. ([2]; fixed GMP 1.0 mM): 1.0
- IC50 [3, 5]: 2600 µM

SMILES: Nc1nc2c(ncn2[C@@H]2O[C@H](COP(=O)(O)O)[C@@H](O)[C@H]2O)c(=O)[nH]1 [GMP]
- increased binding affinity (C site) relative to AMP ([1]; ADP bound to the A site): 3 fold
- increased binding affinity (C site) relative to IMP ([1]; ADP bound to the A site): 3 fold
- Kd ([1]; Kd, fixed ADP 0.5 mM): 25 µM
- Kd ([1]; Kd, no fixed nucleotide, not detected): > 500 µM
- Kd for the free enzyme, estimated ([1]; assuming a synergism of 20-fold): approximately 500 μM
- Capacity ([1]; fixed ADP 0.5 mM): 0.98 ± 0.10 Equivalents bound per subunit
- Kd ([1]; no fixed nucleotide, binding too weak to detect, read-out: Kd): > 500 µM
- syn. ([2]; fixed ADP 0.5 mM): 63
- syn. ([2]; fixed AMP 0.1 mM): 0.95
- concentration required for 50% inhibition relative to that of ADP ([2]; single nucleotide): 2 fold
- concentration required for 50% inhibition relative to that of AMP ([2]; single nucleotide): 10 fold
- IC50 ([3]; I0.5, fixed ADP 0.5 mM): 3300 µM
- IC50 ([3]; I0.5, fixed ADP 2.5 mM): 760 µM
- IC50 [3, 5]: 50000 µM
- syn. (decreased I0.5 due to a second nucleotide) ([3]; fixed ADP 0.5 mM): 15.0 fold
- syn. (decreased I0.5 due to a second nucleotide) ([3]; fixed ADP 2.5 mM): 66.0 fold

SMILES: Nc1ncnc2c1ncn2[C@@H]1O[C@H](COP(=O)(O)OP(=O)(O)O)[C@@H](O)[C@H]1O [ADP]
- decrease of Kd in the presence of GMP ([1]; GMP present): 20 fold
- Kd ([1]; Kd, GMP fixed at either 0.25 or 1.0 mM): ~10 µM
- Capacity ([1]; fixed GMP 0.25 mM): 0.82 ± 0.11 Equivalents bound per subunit
- Kd ([1]; fixed GMP 0.25 mM, read-out: Kd): 10.4 ± 2.7 µM
- Capacity ([1]; fixed GMP 1.0 mM): 0.94 ± 0.14 Equivalents bound per subunit
- Kd ([1]; fixed GMP 1.0 mM, read-out: Kd): 11 µM
- Hill coefficient ([1]; no fixed nucleotide): 1.8
- Capacity ([1]; no fixed nucleotide): 1.83 Equivalents bound per subunit and 1.83 ± 0.26 Equivalents bound per subunit
- Kd [1, 4]: 214 µM and ~214 µM
- Hill coefficient determined from inhibition data [2]: 3.8
- syn. ([2]; fixed AMP 0.1 mM): 1.9
- syn. (decreased I0.5 due to a second nucleotide) ([2]; fixed GMP 0.25 mM): 20
- syn. ([2]; fixed GMP 0.50 mM): 29.0
- syn. ([2]; fixed GMP 1.0 mM): 59
- syn. ([2]; fixed GMP 2.0 mM): 118.0
- syn. ([2]; fixed GMP 4.0 mM): 188.0
- concentration required for 50% inhibition relative to that of AMP ([2]; single nucleotide): 5 fold
- IC50 ([3]; I0.5, fixed GMP 0.50 mM): 2400 µM
- IC50 ([3]; I0.5, fixed GMP 5.0 mM): 180 µM
- IC50 [3, 5]: 28000 µM
- syn. (decreased I0.5 due to a second nucleotide) ([3]; fixed GMP 0.50 mM): 12.0 fold
- syn. (decreased I0.5 due to a second nucleotide) ([3]; fixed GMP 5.0 mM): 156.0 fold
